Assay results from patent US11071735B2, “Treatment of inflammatory conditions and autoimmune diseases with glucose uptake inhibitors” (Kadmon Corporation, LLC, priority 2017, dated 2021).

Assays:
Assay type in all cases: cell-based
GLUT1 = molecular target: T1, GLUT1 (Homo sapiens, UniProt P11166); assay: glycolysis assay in DLD1 WT cells (rely on GLUT1); settings: for IC50: DLD1-WT cells, 10 μM oligomycin, one hour
T1 construct: endogenous in cells; host or cells: DLD1 WT cancer cells
T1 sequence (P11166 1-492): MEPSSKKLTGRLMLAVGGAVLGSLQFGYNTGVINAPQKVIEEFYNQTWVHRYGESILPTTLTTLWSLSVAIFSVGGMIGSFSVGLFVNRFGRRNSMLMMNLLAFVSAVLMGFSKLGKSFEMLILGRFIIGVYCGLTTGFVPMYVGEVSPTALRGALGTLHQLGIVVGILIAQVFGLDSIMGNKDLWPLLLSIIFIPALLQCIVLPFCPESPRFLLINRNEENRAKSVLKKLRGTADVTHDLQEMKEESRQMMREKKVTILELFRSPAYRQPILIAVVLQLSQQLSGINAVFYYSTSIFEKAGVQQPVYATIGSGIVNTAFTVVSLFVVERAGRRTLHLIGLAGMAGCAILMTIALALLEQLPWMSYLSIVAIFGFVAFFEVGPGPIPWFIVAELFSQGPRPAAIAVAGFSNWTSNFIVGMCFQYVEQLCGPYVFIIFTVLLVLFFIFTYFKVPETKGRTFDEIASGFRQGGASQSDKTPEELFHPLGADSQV
Procedure, shortened: (§1)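 Cells […] exposed for 1 h to inhibitor plus 10 μM oligomycin to block mitochondrial ATP; remaining glycolytic ATP read by CellTiter-Glo luminescence. IC50 derived from dose-response curves.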

[1] = tested on: activated human CD4+ T cells; assay: one-hour glycolysis assay in activated human CD4 T cells; settings: human CD4 T cells activated 24 hours, one hour treatment plus oligomycin
Method: In FIG. 2A, human CD4 positive T cells were activated for 24 hours prior to a one hour treatment with the indicated glucose uptake inhibitors combined with 10 μM oligomycin. In FIG. 2B, human CD4 T cells were activated for 48 hours in the presence of the glucose uptake inhibitors. IL-17 and IL-2 secreted into the supernatant was measured by ELISA (R&D systems). Proliferation was measured by Cell Titer Glo (Promega). FIG. 2C lists the IC50 values (μM) for the glucose uptake inhibitors against activated T cell glycolysis, IL-17 secretion and proliferation. […] In FIG. 3A, human CD4 positive T cells were activated for 24 hours prior to a one hour treatment with Bay876 combined with 1 μM oligomycin. In FIG. 3B, human CD4 T cells were activated for 48 hours in the presence of Bay876. L-17 secreted into the supernatant was measured by ELISA (R&D systems). Proliferation was measured by Cell Titer Glo (Promega). […] At this time, secreted IL-17, IL-2 and relative cell number were measured (FIG. 2B, right panel). […] Cells were exposed to the combination of 10 μM Oligomycin (to block mitochondrial-derived ATP) and the glucose uptake inhibitors disclosed herein for one-hour, after which glycolytically-derived ATP was measured with the Cell Titer-Glo assay kit (Promega). […] IL-17 levels were measured by ELISA (R&D systems, Human IL-17 Quantikine ELISA kit). Proliferation was measured by Cell Titer Glo (Promega). […]

GLUT = assay: glycolysis assay (oligomycin + Cell Titer-Glo ATP readout) in HT1080 cells; settings: 10 μM oligomycin, one hour, glycolytically-derived ATP
Procedure, shortened: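 HT1080 cells exposed for one hour to compound plus 10 μM oligomycin to block mitochondrial ATP, so remaining ATP reflects glycolysis. Glycolytic ATP read by CellTiter-Glo luminescence; IC50 derived from dose-response curves.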

GLUT3 = molecular target: T2, GLUT3 (Homo sapiens, UniProt P11169); assay: glycolysis assay in DLD1 GLUT1−/− cells (rely on GLUT3); settings: DLD1-KO (GLUT1−/−) cells; 10 μM oligomycin, one hour
T2 construct: endogenous in cells; host or cells: DLD1 GLUT1−/− (knock-out) cancer cells
T2 sequence (P11169 1-496): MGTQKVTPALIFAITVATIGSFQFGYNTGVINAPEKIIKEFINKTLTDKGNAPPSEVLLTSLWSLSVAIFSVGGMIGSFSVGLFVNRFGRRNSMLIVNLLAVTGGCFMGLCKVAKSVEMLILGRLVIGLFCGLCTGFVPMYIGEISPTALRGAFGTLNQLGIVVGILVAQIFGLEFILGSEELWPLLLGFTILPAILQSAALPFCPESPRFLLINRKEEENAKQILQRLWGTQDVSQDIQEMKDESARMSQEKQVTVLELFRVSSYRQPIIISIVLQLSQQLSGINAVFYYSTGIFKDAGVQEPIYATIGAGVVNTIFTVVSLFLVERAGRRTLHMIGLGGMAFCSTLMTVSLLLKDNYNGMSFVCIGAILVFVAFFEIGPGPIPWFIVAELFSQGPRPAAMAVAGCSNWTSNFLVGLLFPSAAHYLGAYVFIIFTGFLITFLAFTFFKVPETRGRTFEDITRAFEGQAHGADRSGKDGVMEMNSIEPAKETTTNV
Procedure, shortened: as §1

GLUT selectivity (inhibition of glycolysis) (GLUT1; DLD1 WT versus DLD1 GLUT1−/− cells) | IC50 (GLUT1) [nM] | IC50 (GLUT) [nM] | IC50 (GLUT3) [nM] | SMILES | glycolysis in activated T cells [1]
selective for GLUT1 |  |  |  | Cc1c(NC(=O)c2cc(C(N)=O)nc3cc(F)ccc23)c(C(F)(F)F)nn1Cc1ccc(C#N)cc1 [Bay876] | neither inhibited glycolysis
 | 86 | 50 | 148 | CCOc1ccc2nc(-c3cccc(OCC(=O)NC(C)(C)CC)c3)nc(Nc3ccc(-c4cn[nH]c4)cc3)c2c1 [Ex. 4, 2-(3-(4-((4-(1H-pyrazol-4-yl)phenyl)amino)-6-ethoxyquinazolin-2-yl)phenoxy)-N-(tert-pentyl)acetamide] | 
 | 81.6 | 92.1 | 118 | CC[C@@H](C)NC(=O)COc1cccc(-c2nc(Nc3ccc(-c4cn[nH]c4)cc3)c3cc(OC)ccc3n2)c1 [Ex. 52, (R)-2-(3-(4-((4-(1H-pyrazol-4-yl)phenyl)amino)-6-methoxyquinazolin-2-yl)phenoxy)-N-(sec-butyl)acetamide] | 
